{
  "source": "patent US10238670B2",
  "about": "“9-aminomethyl minocycline compounds and methods of use thereof in urinary tract infection (UTI) treatment” (Paratek Pharmaceuticals, Inc., priority 2016, dated 2019)",
  "test": "Phase 1b study in female adults with cystitis, plasma PK",
  "format": "in vivo, human",
  "settings": "for Cmax / AUC(0-t) / Tmax / AUC(0-inf) / half-life / concentration at 5 day: plasma",
  "procedure": "According to the study design, a randomized (1:1:1), open-label, parallel designed Phase 1b study comparing 3 dosing regimens of Compound 1 (9-[(2,2-dimethyl-propyl amino)-methyl-minocycline) in the treatment of female adults with cystitis was conducted. About 31 female patients with uncomplicated urinary tract infection (cystitis) who met inclusion and exclusion criteria were enrolled at 2-4 U.S. treatment centers. All enrolled subjects participated in the study for approximately 5-6 weeks. Following Screening of up to 48 hrs, eligible subjects were randomly assigned to receive one of 3 dosing regimens of Compound 1 treatment as shown below. Subjects in all treatment groups were domiciled for a 5-day treatment period. Details of the study are further described below.\nSubjects were randomized (1:1:1) to one of the following treatment arms: • 1. Group 1: IV load, p.o. daily (200 mg Compound 1 IV every 24 hours (q24h) for 1 dose, followed by 300 mg p.o. q24h for a total of 5 days); • 2. Group 2: p.o. load, p.o. daily (300 mg Compound 1 p.o. every 12 hours (q12h) for 2 doses, followed by 300 mg p.o. q24h for a total of 5 days); • 3. Group 3: high p.o. load, high p.o. daily (450 mg Compound 1 p.o. q12h for 2 doses, followed by 450 mg p.o. q24h for a total of 5 days).\nBlood samples were collected and analyzed for Compound 1 concentration at the following times. Pre-dose blood PK evaluations were based on blood samples collected within 10 min of each start (e.g., t=0 h dose for Day 1, t=24 h dose for Day 2, etc.). • Day 1: Pre-dose, and 0.75, 1, 2, 3, 4, 6, 8 and 12 hours after the t=0 h dose (12 h sample before the t=12 h dose for Groups 2 and 3); • Day 2: prior to the t=24 h dose; • Day 3: prior to the t=48 h dose; • Day 4: prior to the t=72 h dose; • Day 5: Pre-dose, and 0.5, 1, 2, 3, 4, 6, 8 and 12 hours after the t=96 h dose • Day 6: at t=120 h (24 hours after the t=96 h dose on Day 5)\nFollowing the final oral doses on Day 5 the Compound 1 plasma concentration-time data for Groups 1, 2 and 3 were used to determine Cmax, Tmax, AUC24h, AUCt. Trough plasma concentrations (Ctrough) following each dose (Days 2 to 6) were also determined.\nBlood samples for PK are collected at the time points specified below. • Day 1: Predose, and 0.75, 1, 2, 3, 4, 6, 8 and 12 hours after the t=0 h dose (12 h sample before the t=12 h dose for Groups 2 and 3); • Day 2: prior to the t=24 h dose; • Day 3: prior to the t=48 h dose; • Day 4: prior to the t=72 h dose; • Day 5: Predose, and 0.5, 1, 2, 3, 4, 6, 8 and 12 hours after the t=96 h dose • Day 6: at t=120 h (24 hours after the t=96 h dose on Day 5)\nBlood was collected either by fresh venipuncture or via a cannula used solely for that purpose. The dates and times for all doses of test article and PK sample collections were recorded. For intravenously administered doses of test article, the start and stop times for each infusion were recorded. Immediately after the sample was collected, the tube was gently inverted 5 to 8 times to thoroughly mix the anticoagulant and then placed upright in a cryoblock or test tube rack surrounded by ice until centrifugation. Samples were centrifuged at 1500×g for 10 minutes at approximately 4° C. within 30 minutes of collection. The resultant plasma was divided into 2 equal aliquots, placed in individual cryovials, and immediately frozen at −20° C. or colder within 1 hour of collection. The samples were kept frozen at −20° C. or colder pending shipment to the bioanalytical laboratory.\nThe Compound 1 plasma concentration data was listed and summarized by time point and treatment group. The following PK parameters were estimated from the Compound 1 plasma concentration-time data: […]",
  "key": {"[1]": {"settings": "Day 1, 300 mg po (n = 10), mean"}, "[2]": {"settings": "Day 5, 300 mg po (n = 10), mean"}},
  "note": "Like-named read-outs stand apart in the source and are kept apart here.",
  "data": [
    {"smiles": "CN(C)c1cc(CNCC(C)(C)C)c(O)c2c1C[C@H]1C[C@H]3[C@H](N(C)C)C(O)=C(C(N)=O)C(=O)[C@@]3(O)C(O)=C1C2=O", "note": "[Compound 1, 9-[(2,2-dimethyl-propylamino)-methyl]-minocycline]", "values": [
      {"measurement": "AUC0-12", "setting": "[1]", "value": 6260, "unit": "ng·h/mL"},
      {"measurement": "Cmax", "setting": "[1]", "value": 880, "unit": "ng/mL"},
      {"measurement": "Cmin", "setting": "Day 5, 200 mg IV, 300 mg po (n = 11), mean", "value": 290, "unit": "ng/mL"},
      {"measurement": "AUC0-24", "setting": "[2]", "value": 13500, "unit": "ng·h/mL"},
      {"measurement": "Cmin", "setting": "[2]", "value": 320, "unit": "ng/mL"},
      {"measurement": "Cmin", "setting": "Day 5, 450 mg po (n = 10), mean", "value": 480, "unit": "ng/mL"},
      {"measurement": "AUC(0-t)", "setting": "female, human, intravenous, 200 mg, Day 1, 200 mg IV, 300 mg po (n = 11), mean, read-out: AUC0-24", "value": 16000, "unit": "ng·h/mL"},
      {"measurement": "Tmax", "setting": "female, human, intravenous, 200 mg, Day 1, 200 mg IV, 300 mg po (n = 11), median, read-out: tmax", "value": 0.75, "unit": "h"},
      {"measurement": "Cmax", "setting": "female, human, intravenous, 200 mg, Day 1, 200 mg IV, 300 mg po (n = 11), mean, read-out: Cmax", "value": 2160, "unit": "ng/mL"},
      {"measurement": "AUC(0-t)", "setting": "female, human, intravenous, 200 mg, Day 1, IV_PO300, read-out: AUC(0-24 hrs), Geo. Mean", "value": 15600, "unit": "ng·h/mL"},
      {"measurement": "AUC(0-t)", "setting": "female, human, intravenous, 200 mg, Day 1, IV_PO300, read-out: AUC(0-24 hrs), Mean", "value": 16000, "unit": "ng·h/mL"},
      {"measurement": "AUC(0-t)", "setting": "female, human, intravenous, 200 mg, Day 1, IV_PO300, read-out: AUC(0-24 hrs), Median", "value": 14800, "unit": "ng·h/mL"},
      {"measurement": "AUC(0-inf)", "setting": "female, human, intravenous, 200 mg, Day 1, IV_PO300, read-out: AUC(0-inf), Geo. Mean", "value": 19700, "unit": "ng·h/mL"},
      {"measurement": "AUC(0-inf)", "setting": "female, human, intravenous, 200 mg, Day 1, IV_PO300, read-out: AUC(0-inf), Mean", "value": 19900, "unit": "ng·h/mL"},
      {"measurement": "AUC(0-inf)", "setting": "female, human, intravenous, 200 mg, Day 1, IV_PO300, read-out: AUC(0-inf), Median", "value": 19300, "unit": "ng·h/mL"},
      {"measurement": "Cmax", "setting": "female, human, intravenous, 200 mg, Day 1, IV_PO300, read-out: Cmax, Geo. Mean", "value": 1960, "unit": "ng/mL"},
      {"measurement": "Cmax", "setting": "female, human, intravenous, 200 mg, Day 1, IV_PO300, read-out: Cmax, Mean", "value": 2160, "unit": "ng/mL"},
      {"measurement": "Cmax", "setting": "female, human, intravenous, 200 mg, Day 1, IV_PO300, read-out: Cmax, Median", "value": 1850, "unit": "ng/mL"},
      {"measurement": "Tmax", "setting": "female, human, intravenous, 200 mg, Day 1, IV_PO300, read-out: Tmax, Geo. Mean", "value": 0.869, "unit": "h"},
      {"measurement": "Tmax", "setting": "female, human, intravenous, 200 mg, Day 1, IV_PO300, read-out: Tmax, Mean", "value": 0.897, "unit": "h"},
      {"measurement": "Tmax", "setting": "female, human, intravenous, 200 mg, Day 1, IV_PO300, read-out: Tmax, Median", "value": 0.75, "unit": "h"},
      {"measurement": "half-life", "setting": "female, human, intravenous, 200 mg, Day 1, IV_PO300, read-out: T½, Geo. Mean (converted)", "value": 11.3, "unit": "h"},
      {"measurement": "half-life", "setting": "female, human, intravenous, 200 mg, Day 1, IV_PO300, read-out: T½, Mean (converted)", "value": 11.4, "unit": "h"},
      {"measurement": "half-life", "setting": "female, human, intravenous, 200 mg, Day 1, IV_PO300, read-out: T½, Median (converted)", "value": 11.5, "unit": "h"},
      {"measurement": "AUC(0-t)", "setting": "female, human, oral, 300 mg, Day 5, 200 mg IV, 300 mg po (n = 11), mean, read-out: AUC0-24", "value": 13200, "unit": "ng·h/mL"},
      {"measurement": "Cmax", "setting": "female, human, oral, 300 mg, Day 5, 200 mg IV, 300 mg po (n = 11), mean, read-out: Cmax", "value": 1120, "unit": "ng/mL"},
      {"measurement": "Tmax", "setting": "female, human, oral, 300 mg, Day 5, 200 mg IV, 300 mg po (n = 11), median, read-out: tmax", "value": 3, "unit": "h"},
      {"measurement": "AUC(0-t)", "setting": "female, human, oral, 300 mg, Day 1, PO300, read-out: AUC(0-12 hrs), Geo. Mean", "value": 6150, "unit": "ng·h/mL"},
      {"measurement": "AUC(0-t)", "setting": "female, human, oral, 300 mg, Day 1, PO300, read-out: AUC(0-12 hrs), Mean", "value": 6260, "unit": "ng·h/mL"},
      {"measurement": "AUC(0-t)", "setting": "female, human, oral, 300 mg, Day 1, PO300, read-out: AUC(0-12 hrs), Median", "value": 6520, "unit": "ng·h/mL"},
      {"measurement": "Cmax", "setting": "female, human, oral, 300 mg, Day 1, PO300, read-out: Cmax, Geo. Mean", "value": 849, "unit": "ng/mL"},
      {"measurement": "Cmax", "setting": "female, human, oral, 300 mg, Day 1, PO300, read-out: Cmax, Mean", "value": 877, "unit": "ng/mL"},
      {"measurement": "Cmax", "setting": "female, human, oral, 300 mg, Day 1, PO300, read-out: Cmax, Median", "value": 916, "unit": "ng/mL"},
      {"measurement": "Tmax", "setting": "female, human, oral, 300 mg, Day 1, PO300, read-out: Tmax, Geo. Mean", "value": 2.96, "unit": "h"},
      {"measurement": "Tmax", "setting": "female, human, oral, 300 mg, Day 1, PO300, read-out: Tmax, Mean", "value": 2.99, "unit": "h"},
      {"measurement": "Tmax", "setting": "female, human, oral, 300 mg, Day 1, PO300, read-out: Tmax, Median", "value": 3, "unit": "h"},
      {"measurement": "AUC(0-t)", "setting": "female, human, oral, 300 mg, Day 5, IV_PO300, read-out: AUC(0-24 hrs), Geo. Mean", "value": 9550, "unit": "ng·h/mL"},
      {"measurement": "AUC(0-t)", "setting": "female, human, oral, 300 mg, Day 5, IV_PO300, read-out: AUC(0-24 hrs), Mean", "value": 13200, "unit": "ng·h/mL"},
      {"measurement": "AUC(0-t)", "setting": "female, human, oral, 300 mg, Day 5, IV_PO300, read-out: AUC(0-24 hrs), Median", "value": 15800, "unit": "ng·h/mL"},
      {"measurement": "Cmax", "setting": "female, human, oral, 300 mg, Day 5, IV_PO300, read-out: Cmax, Geo. Mean", "value": 808, "unit": "ng/mL"},
      {"measurement": "Cmax", "setting": "female, human, oral, 300 mg, Day 5, IV_PO300, read-out: Cmax, Mean", "value": 1120, "unit": "ng/mL"},
      {"measurement": "Cmax", "setting": "female, human, oral, 300 mg, Day 5, IV_PO300, read-out: Cmax, Median", "value": 1300, "unit": "ng/mL"},
      {"measurement": "concentration at 5 day", "setting": "female, human, oral, 300 mg, Day 5, IV_PO300, read-out: Ctrough, Geo. Mean", "value": 214, "unit": "ng/mL"},
      {"measurement": "concentration at 5 day", "setting": "female, human, oral, 300 mg, Day 5, IV_PO300, read-out: Ctrough, Mean", "value": 292, "unit": "ng/mL"},
      {"measurement": "concentration at 5 day", "setting": "female, human, oral, 300 mg, Day 5, IV_PO300, read-out: Ctrough, Median", "value": 378, "unit": "ng/mL"},
      {"measurement": "Tmax", "setting": "female, human, oral, 300 mg, Day 5, IV_PO300, read-out: Tmax, Geo. Mean", "value": 2.83, "unit": "h"},
      {"measurement": "Tmax", "setting": "female, human, oral, 300 mg, Day 5, IV_PO300, read-out: Tmax, Mean", "value": 2.6, "unit": "h"},
      {"measurement": "Tmax", "setting": "female, human, oral, 300 mg, Day 5, IV_PO300, read-out: Tmax, Median", "value": 3, "unit": "h"},
      {"measurement": "half-life", "setting": "female, human, oral, 300 mg, Day 5, IV_PO300, read-out: T½, Geo. Mean (converted)", "value": 13.2, "unit": "h"}
    ]}
  ]
}
